Test results reported in US11478474B2, “2-(3′-(hydroxymethyl)-1-methyl-5-((5-(2-methyl-4-(oxetan-3-yl)piperazin-1-yl)pyridin-2-yl)amino)-6-oxo-1,6-dihydro-[3,4′-bipyridin]-2′-yl)-7,7-dimethyl-7,8-dihydro-2H-cyclopenta[4,5]pyrrolo[1,2-a]pyrazin-1(6H)-one as a BTK inhibitor” (HUTCHISON MEDIPHARMA LIMITED, priority 2020, dated 2022).

How the values were obtained:
[1] = biological target: BTK recombinant protein (Homo sapiens (Human), UniProt Q06187); assay: Determination of biochemical BTK (Z'-LYTE kinase assay)
Chain of BTK recombinant protein (Q06187 whole entry): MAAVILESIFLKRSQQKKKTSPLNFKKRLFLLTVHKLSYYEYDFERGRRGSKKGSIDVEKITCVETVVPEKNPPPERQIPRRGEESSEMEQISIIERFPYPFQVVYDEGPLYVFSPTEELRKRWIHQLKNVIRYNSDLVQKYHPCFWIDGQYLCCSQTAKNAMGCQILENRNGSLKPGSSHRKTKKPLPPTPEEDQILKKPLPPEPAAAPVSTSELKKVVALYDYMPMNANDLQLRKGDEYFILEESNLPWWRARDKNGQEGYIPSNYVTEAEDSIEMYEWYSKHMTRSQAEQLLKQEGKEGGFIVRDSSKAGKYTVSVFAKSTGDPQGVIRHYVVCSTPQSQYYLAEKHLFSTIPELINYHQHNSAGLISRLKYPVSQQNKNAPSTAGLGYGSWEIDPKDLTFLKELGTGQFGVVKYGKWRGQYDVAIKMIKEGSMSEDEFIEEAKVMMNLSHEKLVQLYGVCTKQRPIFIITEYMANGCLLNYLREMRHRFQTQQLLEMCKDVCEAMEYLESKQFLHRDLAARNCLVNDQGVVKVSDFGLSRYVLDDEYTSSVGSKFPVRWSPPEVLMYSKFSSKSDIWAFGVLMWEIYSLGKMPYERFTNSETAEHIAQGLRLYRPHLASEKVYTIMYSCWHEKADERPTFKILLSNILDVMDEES
Method in brief: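 Human BTK recombinant kinase (3.32 nM final) was preincubated with compound for 30 min at 4 °C. Reaction ran 1 h at room temperature with Tyr01 FRET peptide (2 μM) and ATP (32 μM); development protease then added. Coumarin 445 nm/fluorescein 520 nm emission ratio (400 nm excitation) gave inhibition across 8 concentrations, 3000–1.37 nM.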

[2] = biological target: phosphorylated BTK in Ramos cells (Homo sapiens (Human), UniProt Q06187); assay: Determination of phosphorylated BTK in Ramos cells (BTK phospho-Y223 HTRF); assay type: cell-based; conditions: anti-human IgM + hydrogen peroxide stimulation
Chain of phosphorylated BTK in Ramos cells (Q06187 whole entry): as above
Method in brief: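 BTK Y223 phosphorylation measured by HTRF (665/615 nm) in lysates of Ramos cells. Cells were serum-starved 2 h, exposed to compound for 1 h (final 0.00018–3.0 μM, 0.3% DMSO), then stimulated 10 min with 10 μg/mL anti-IgM and 3.3 mM H2O2. IC50 derived from percent inhibition between unstimulated and stimulated controls.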

IC50 [1] [µM]	IC50 [2] [µM]	Compound
0.006	0.004	C[C@@H]1c2cc(Nc3cc(-c4ccnc(-n5ccn6c7c(cc6c5=O)CC(C)(C)C7)c4CO)cn(C)c3=O)nn2CCN1C1COC1 [Compound 137]
0.039	0.011	COC1CN(c2ccc(Nc3cc(-c4ccnc(-n5ncn6c7c(cc6c5=O)CC(C)(C)C7)c4CO)cn(C)c3=O)nc2)C1 [Compound 139]
< 0.001	0.011	Cn1cc(-c2ccnc(-n3ccn4c5c(cc4c3=O)CC(C)(C)C5)c2CO)cc(Nc2ccc(C3CN(C4COC4)C3)cn2)c1=O [Compound 140]
0.014	0.013	Cn1cc(-c2ccnc(-n3ncn4c5c(cc4c3=O)CC(C)(C)C5)c2CO)cc(Nc2ccc(C3CN(C4COC4)C3)cn2)c1=O [Compound 141]
0.051	0.06	Cn1cc(-c2ccnc(-n3ccn4c5c(cc4c3=O)CCC5)c2CO)cc(Nc2cc3n(n2)CCN(C#N)C3)c1=O [Compound 142]
0.004	0.005	Cn1cc(-c2ccnc(-n3ncn4c5c(cc4c3=O)CC(C)(C)C5)c2CO)cc(Nc2cc3n(n2)CCN(C#N)C3)c1=O [Compound 143]
0.019	0.008	C[C@H]1CN(C2COC2)CCN1c1ccc(Nc2cc(-c3ccnc(-n4ncn5c(c(F)c6ccccc65)c4=O)c3CO)cn(C)c2=O)nc1 [Compound 149]
0.012	0.012	C[C@H]1CN(C2COC2)CCN1c1ccc(Nc2cc(-c3ccnc(-n4ncn5c6c(cc5c4=O)CCCCC6)c3CO)cn(C)c2=O)nc1 [Compound 150]
0.002	0.028	C[C@H]1CN(C2COC2)CCN1c1ccc(Nc2cc(-c3ccnc(-n4ncn5c(cc6ccccc65)c4=O)c3CO)cn(C)c2=O)nc1 [Compound 151]
0.008	0.013	COCc1cc(Nc2cc(-c3ccnc(-n4ccn5c6c(cc5c4=O)CC(C)(C)C6)c3CO)cn(C)c2=O)nn1C [Compound 154]
0.006	0.012	Cn1cc(-c2ccnc(-n3ncn4c5c(cc4c3=O)CC(C)(C)C5)c2CO)cc(Nc2cc3n(n2)CCOC3)c1=O [Compound 156]
0.016	0.025	C[C@H]1CN(C2COC2)CCN1c1ccc(Nc2cc(-c3ccnc(-n4ncn5c6c(cc5c4=O)CCCC6)c3CO)cn(C)c2=O)nc1 [Compound 157]
0.006	0.026	COC1CN(c2ccc(Nc3cc(-c4ccnc(-n5ccn6c7c(cc6c5=O)CC(C)(C)C7)c4CO)cn(C)c3=O)nn2)C1 [Compound 159]
0.004	0.007	C[C@H]1CN(C2COC2)CCN1c1ccc(Nc2cc(-c3ccnc(-n4ccn5c6c(c(F)c5c4=O)CCCC6)c3CO)cn(C)c2=O)nc1 [Compound 161]
0.001	0.006	Cn1cc(-c2ccnc(-n3ccn4c5c(cc4c3=O)CC(C)(C)C5)c2CO)cc(Nc2cc3n(n2)CCOC3)c1=O [Compound 162]
0.008	0.034	COCCN1CCn2nc(Nc3cc(-c4ccnc(-n5ncn6c7c(cc6c5=O)CCCC7)c4CO)cn(C)c3=O)cc2C1 [Compound 163]
0.012	0.023	Cc1nn(-c2nccc(-c3cc(Nc4cc5n(n4)CCN(C4COC4)C5)c(=O)n(C)c3)c2CO)c(=O)c2cc3c(n12)CC(C)(C)C3 [Compound 164]
0.004	0.031	CCN1CCn2nc(Nc3cc(-c4ccnc(-n5ncn6c7c(cc6c5=O)CC(C)(C)C7)c4CO)cn(C)c3=O)cc2C1 [Compound 165]
0.035	0.121	Cn1cc(-c2ccnc(-n3ncn4c5c(cc4c3=O)CCCC5)c2CO)cc(Nc2cc3n(n2)CCN(C2COC2)C3)c1=O [Compound 166]
0.016	0.012	COCCN1CCn2nc(Nc3cc(-c4ccnc(-n5ccn6c7c(c(F)c6c5=O)CCCC7)c4CO)cn(C)c3=O)cc2C1 [Compound 167]

IC50 [1] [µM]	IC50 [2] [µM]	Compound
0.028	0.02	COCCN1CCn2nc(Nc3cc(-c4ccnc(-n5ccn6c7c(cc6c5=O)CC(C)C7)c4CO)cn(C)c3=O)cc2C1 (stereo not drawn) [Compound 168]
0.06	0.03	COc1ccc(Nc2cc(-c3ccnc(-n4ccn5c6c(cc5c4=O)CC(C)(C)C6)c3CO)cn(C)c2=O)nn1 [Compound 169]
0.018	0.016	Cn1cc(-c2ccnc(-n3ncn4c5c(cc4c3=O)CC(C)(C)C5)c2CO)cc(Nc2cc3n(n2)CCN(C2CCC2)C3)c1=O [Compound 170]
0.013	0.011	Cn1cc(-c2ccnc(-n3ncn4c5c(cc4c3=O)CC(C)(C)C5)c2CO)cc(Nc2cc3n(n2)CCN(C2CC2)C3)c1=O [Compound 171]
0.041	0.011	CCn1cc(Nc2cc(-c3ccnc(-n4ccn5c6c(cc5c4=O)CC(C)(C)C6)c3CO)cn(C)c2=O)cn1 [Compound 172]
0.08	0.028	CC(C)n1cc(Nc2cc(-c3ccnc(-n4ccn5c6c(cc5c4=O)CC(C)(C)C6)c3CO)cn(C)c2=O)cn1 [Compound 173]
0.002	0.044	CCCn1cc(Nc2cc(-c3ccnc(-n4ccn5c6c(cc5c4=O)CC(C)(C)C6)c3CO)cn(C)c2=O)cn1 [Compound 174]
0.071	0.04	COCCn1cc(Nc2cc(-c3ccnc(-n4ccn5c6c(cc5c4=O)CC(C)(C)C6)c3CO)cn(C)c2=O)cn1 [Compound 175]
0.003	0.016	Cn1cc(-c2ccnc(-n3ccn4c5c(c(F)c4c3=O)CCCC5)c2CO)cc(Nc2cc3n(n2)CCOC3)c1=O [Compound 176]
0.006	0.021	COCCN1CCn2nc(Nc3cc(-c4ccnc(-n5ccn6c(c(F)c7ccccc76)c5=O)c4CO)cn(C)c3=O)cc2C1 [Compound 177]
0.006	0.012	Cn1cc(-c2ccnc(-n3ccn4c(c(F)c5ccccc54)c3=O)c2CO)cc(Nc2cc3n(n2)CCN(C2COC2)C3)c1=O [Compound 178]
0.016	0.084	CCn1cc(Nc2cc(-c3ccnc(-n4ccn5c6c(c(F)c5c4=O)CCCC6)c3CO)cn(C)c2=O)cn1 [Compound 180]
0.012	0.038	CC1Cc2cc3c(=O)n(-c4nccc(-c5cc(Nc6cc7n(n6)CCOC7)c(=O)n(C)c5)c4CO)ccn3c2C1 (stereo not drawn) [Compound 181]
0.025	0.067	Cn1cc(-c2ccnc(-n3ccn4c(c(F)c5ccccc54)c3=O)c2CO)cc(Nc2ccc(C3CN(C4COC4)C3)cn2)c1=O [Compound 183]
0.077	0.08	C[C@H]1CN(C2COC2)CCN1c1ccc(Nc2cc(-c3ccnc(-n4cnn5c6c(cc5c4=O)CCCC6)c3CO)cn(C)c2=O)nc1 [Compound 184]
0.013	0.013	C[C@H]1CN(C(CO)CO)CCN1c1ccc(Nc2cc(-c3ccnc(-n4ccn5c6c(cc5c4=O)CC(C)(C)C6)c3CO)cn(C)c2=O)nc1 [Compound 185]
0.014	0.01	C[C@H]1CN(C2COC2)CCN1c1ccc(Nc2cc(-c3ccnc(-n4ncn5c6c(c(F)c5c4=O)CCCC6)c3CO)cn(C)c2=O)nc1 [Compound 186]
0.041	0.039	Cc1ccc2c(c1)cc1c(=O)n(-c3nccc(-c4cc(Nc5ccc(N6CCN(C7COC7)C[C@@H]6C)cn5)c(=O)n(C)c4)c3CO)ccn12 [Compound 188]
0.039	0.051	C[C@H]1COCCN1c1ccc(Nc2cc(-c3ccnc(-n4ccn5c6c(cc5c4=O)CCC6)c3CO)cn(C)c2=O)nc1 [Compound 189]
